Reference: the RepoRT retention time repository (doi:10.1007/s00216-021-03828-0)

Legend:
Details in all cases: stereoisomer not certain
[1] = RP, Merck Supelco Ascentis Express C18, 100 × 2.1 mm, 2 µm, 40 °C, 0.2 mL/min, estimated dead time 1.1 min; A: water + 0.1% formic acid, pH 3; B: acetonitrile + 0.1% formic acid, pH 3; gradient (min/%B) 0/5 2/5 17/99.9 20/99.9
[2] = RP, Merck Supelco Ascentis Express C18, 100 × 2.1 mm, 2 µm, 40 °C, 0.25 mL/min, estimated dead time 0.88 min; A: water + 0.1% formic acid, pH 3; B: acetonitrile + 0.1% formic acid, pH 3; gradient (min/%B) 0/5 2/5 17/99.9 20/99.9
[3] = RP, Merck Supelco Ascentis Express C18, 100 × 2.1 mm, 2 µm, 39 °C, 0.3 mL/min, estimated dead time 0.73 min; A: water + 0.1% formic acid, pH 3; B: acetonitrile + 0.1% formic acid, pH 3; gradient (min/%B) 0/5 2/5 17/99.9 20/99.9
[4] = RP, Merck Supelco Ascentis Express C18, 100 × 2.1 mm, 2 µm, 40 °C, 0.4 mL/min, estimated dead time 0.55 min; A: water + 0.1% formic acid, pH 3; B: acetonitrile + 0.1% formic acid, pH 3; gradient (min/%B) 0/5 2/5 17/99.9 20/99.9
[5] = RP, Merck Supelco Ascentis Express C18, 100 × 2.1 mm, 2 µm, 40 °C, 0.2 mL/min, estimated dead time 1.1 min; A: water + 0.1% formic acid, pH 3; B: acetonitrile + 0.1% formic acid, pH 3; gradient (min/%B) 0/5 2/5 17/99.9 20/99.9; remark: listed apart in the source

| LC retention time [1] [min] | LC retention time [2] [min] | LC retention time [3] [min] | LC retention time [4] [min] | LC retention time [5] [min] | SMILES |
| --- | --- | --- | --- | --- | --- |
| – | – | – | – | 1.41 | O=C(O)CCC(=O)C(=O)O [OXOGLUTARATE] |
| 1.34 | – | – | – | 1.32 | O=C1CCC(C(=O)O)N1 (centres undefined) [OXOPROLINE] |
| – | – | – | 1.09 | – | O=CCc1ccccc1 [PHENYLACETALDEHYDE] |
| – | – | 4.98 | – | – | O=C(O)C(=O)Cc1ccccc1 [PHENYLPYRUVATE] |
| 15.5 | 14.7 | 14.1 | 13.3 | – | CC(=CCC1=C(C)C(=O)c2ccccc2C1=O)CCCC(C)CCCC(C)CCCC(C)C (centres undefined) [PHYLLOQUINONE] |
| – | – | – | – | 1.37 | O=C([O-])c1ccccn1 [PICOLINATE] |
| 1.33 | – | – | – | 1.33 | Nc1nc2nccnc2c(=O)[nH]1 [PTERIN] |
| 1.54 | 1.19 | 3.07 | 0.73 | – | O=C(O)c1ccc[nH]1 [PYRROLE-2-CARBOXYLATE] |
| 1.38 | 1.07 | 0.937 | – | 1.38 | O=C(O)c1cccnc1C(=O)O [QUINOLINATE] |
| 10.2 | 9 | – | 2.49 | – | c1ccc2ncccc2c1 [QUINOLINE] |
| 7.02 | 6.4 | 5.93 | 5.28 | – | CC=CC=CC(=O)[O-] [SORBATE] |
| 12.1 | 11.5 | 10.9 | 10.6 | – | CCCCCCCCCCCCCCCC(O)C(N)CO (centres undefined) [SPHINGANINE] |
| 15.6 | 14.8 | 14 | 13.6 | – | CC(C)=CCCC(C)=CCCC(C)=CCCC=C(C)CCC=C(C)CCC=C(C)C [SQUALENE] |
| 2.69 | 2.12 | 1.78 | 1.4 | – | Cn1cnc2c1c(=O)[nH]c(=O)n2C [THEOBROMINE] |
| – | – | 0.887 | – | – | O=C(O)C=C(CC(=O)O)C(=O)O [TRANS-ACONITATE] |
| – | – | 2.72 | – | – | NC(Cc1c[nH]c2ccccc12)C(=O)O (centres undefined) [TRYPTOPHAN] |
| 1.33 | – | – | – | – | NC(Cc1ccc(O)cc1)C(=O)O (centres undefined) [TYROSINE] |
| 1.39 | 1.07 | – | – | 1.36 | O=C([O-])c1c[nH]c(=O)[nH]c1=O [URACIL 5-CARBOXYLATE] |

The remaining lines, values behind:

| SMILES | LC retention time [1] [min] | LC retention time [2] [min] | LC retention time [3] [min] | LC retention time [4] [min] | LC retention time [5] [min] |
| --- | --- | --- | --- | --- | --- |
| CC(O)c1ccccc1 (centres undefined) [1-PHENYLETHANOL] | 8.6 | 7.9 | 7.38 | 6.7 | – |
| O=c1cccc(O)[nH]1 [2,6-DIHYDROXYPYRIDINE] | 1.53 | 1.19 | 0.947 | 0.73 | – |
| Nc1ccccc1O [2-AMINOPHENOL] | 1.34 | – | – | – | – |
| O=C(O)c1ccc2ccccc2n1 [2-QUINOLINECARBOXYLATE] | 4.63 | 4.05 | 3.6 | 2.93 | – |
| Nc1cc(O)cc(C(=O)O)c1 [3-AMINO-5-HYDROXYBENZOATE] | 1.32 | – | – | – | – |
| O=C(O)c1cccc(O)c1 [3-HYDROXYBENZOATE] | 5.31 | 4.72 | 4.28 | 3.62 | – |
| COc1cc(CCN)ccc1O [3-METHOXYTYRAMINE] | 1.78 | 1.37 | 1.13 | 0.863 | – |
| CC1C(=O)Nc2ccccc21 (centres undefined) [3-METHYL-2-OXINDOLE] | 7.09 | 6.5 | 6.16 | 5.56 | – |
| O=C(O)C(O)COP(=O)(O)O (centres undefined) [3-PHOSPHOGLYCERATE] | 1.39 | – | – | 0.663 | – |
| Cc1ccc(O)c(O)c1 [4-METHYLCATECHOL] | 2.48 | 1.97 | 1.62 | 1.24 | – |
| O=C1CCCCO1 [5-VALEROLACTONE] | 3.96 | 3.24 | 2.73 | 2.06 | – |
| NCCc1cc(O)c(O)cc1O [6-HYDROXYDOPAMINE] | – | – | – | 0.893 | – |
| O=C(O)C(O)C(O)C(O)C(O)COP(=O)(O)O (centres undefined) [6-PHOSPHOGLUCONATE] | 1.32 | – | – | – | – |
| CC(C)CCCC(C)C1CCC2C3=CC=C4CC(O)CCC4(C)C3CCC21C (centres undefined) [7-DEHYDROCHOLESTEROL] | 11.4 | 10.8 | 15.1 | 9.92 | – |
| CC(CCCC(C)(C)O)C1CCC2C3CC=C4CC(O)CCC4(C)C3CCC12C (centres undefined) [25-HYDROXYCHOLESTEROL] | 13.4 | 18.3 | 17.8 | 17 | – |
| Nc1ncnc2c1ncn2C1OC(CO)C2OP(=O)(O)OC21 (centres undefined) [ADENOSINE 2',3'-CYCLIC PHOSPHATE] | 1.34 | – | – | – | 1.32 |
| Nc1ncnc2c1ncn2C1OC(CO)C(O)C1O (centres undefined) [ADENOSINE] | 1.33 | – | – | – | 1.35 |
| CCCCC(CC)COC(=O)c1ccccc1C(=O)OCC(CC)CCCC (centres undefined) [BIS(2-ETHYLHEXYL)PHTHALATE] | 19 | 18.3 | 17.7 | 17 | – |
| Cn1c(=O)c2c(ncn2C)n(C)c1=O [CAFFEINE] | 4.96 | 4.48 | 4.12 | 3.63 | – |
| CC12CCC(=O)C=C1CCC1C2C(O)CC2(C)C(C(=O)CO)CCC12 (centres undefined) [CORTICOSTERONE] | 9.16 | 8.66 | 8.25 | 7.73 | – |
| Nc1nc2c(ncn2C2OC3COP(=O)(O)OC3C2O)c(=O)[nH]1 (centres undefined) [CYCLIC GMP] | 1.34 | – | – | – | 1.33 |

| SMILES | LC retention time [1] [min] | LC retention time [2] [min] | LC retention time [3] [min] | LC retention time [4] [min] | LC retention time [5] [min] |
| --- | --- | --- | --- | --- | --- |
| CC(=O)OCC(=O)C1CCC2C3CCC4=CC(=O)CCC4(C)C3CCC12C (centres undefined) [DEOXYCORTICOSTERONE ACETATE] | 12.2 | 11.6 | 11.1 | 10.5 | – |
| CC(C)=CCCC(C)C1CCC2C3CC=C4CC(O)CCC4(C)C3CCC12C (centres undefined) [DESMOSTEROL] | 16.6 | 15.8 | 15.1 | 14.3 | – |
| CC12CCC3c4ccc(O)cc4CCC3C1CCC2O (stereo not drawn) [ESTRADIOL-17ALPHA] | 10.3 | 9.66 | 9.22 | 8.64 | – |
| CCOC(=O)Cc1c[nH]c2ccccc12 [ETHYL 3-INDOLEACETATE] | 10.2 | 9.59 | 9.1 | 8.46 | – |
| O=C(O)CCCC(=O)O [GLUTARATE] | – | – | 1.34 | – | – |
| Oc1ccc(O)cc1 [HYDROQUINONE] | – | – | – | – | 4.63 |
| NC(=O)CCCCC1CCSS1 (centres undefined) [LIPOAMIDE] | 7.65 | 7.07 | 6.65 | 6.08 | – |
| O=C(O)C=CC(=O)O [MALEATE] | – | – | – | 0.693 | – |
| CCC=CCC1C(=O)CCC1CC(=O)OC (centres undefined) [METHYL JASMONATE] | 11.2 | 10.5 | 9.96 | 9.27 | – |
| CC1(O)CCOC(=O)C1 (centres undefined) [MEVALOLACTONE] | 1.84 | 1.46 | – | 0.903 | – |
| CC(=O)NC(CCC(=O)O)C(=O)O (centres undefined) [N-ACETYLGLUTAMATE] | 1.36 | 1.06 | 0.897 | – | 1.35 |
| CNCCc1c[nH]c2ccccc12 [N-METHYLTRYPTAMINE] | 4.88 | 4.33 | 3.89 | 3.32 | – |
| CCCCCCCCC=CCCCCCCCCCCCCCC(=O)[O-] [NERVONATE] | 18.7 | 18.7 | 18.2 | 17.4 | – |
| NCC(O)c1ccc(O)c(O)c1 (centres undefined) [NORADRENALINE] | – | – | – | 1.07 | – |
| NCCc1ccccc1 [PHENETHYLAMINE] | – | 1.54 | – | 0.963 | – |
| NCC(O)c1ccccc1 (centres undefined) [PHENYLETHANOLAMINE] | 1.4 | 1.09 | 0.883 | 0.673 | – |
| NCCc1c[nH]c2ccc(O)cc12 [SEROTONIN] | 1.77 | 1.35 | 1.12 | 0.857 | – |
| O=C/C=C/c1ccccc1 [TRANS-CINNAMALDEHYDE] | 11.7 | 11.1 | 10.7 | 10.1 | – |
| NCCc1c[nH]c2ccccc12 [TRYPTAMINE] | 4.56 | 3.97 | 3.5 | 2.77 | – |
| NCCc1ccc(O)cc1 [TYRAMINE] | 1.4 | 1.09 | 0.883 | 0.673 | – |
